# Experimental data reported in PubChem BioAssay AID2060487 (Molecular Pharmacology Branch, DTP, NCI, 2025).
# Test system: 997537-175-T-J1-PDC complex spheroid viability
# Test: Anticancer human tumor 997537-175-T-J1-PDC patient-derived colon adenocarcinoma cell line growth inhibition [GQUAD]
# Details: for IC50: curve of first compound; for viability, T/C: stronger effect = lower value
# How it was run: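 Multi-cell-type spheroids of tumor cells with HUVEC and mesenchymal stem cells, treated with drug combinations. Concentrations descend in half-log steps from near clinical Cmax, or from 10 microM where Cmax is unknown; viability read-out.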
# [1] = second compound 0.0316 µM, first compound 0.0316 µM
# [2] = second compound 0.0316 µM, first compound 0.1 µM
# [3] = second compound 0.0316 µM, first compound 0.316 µM
# [4] = second compound 0.0316 µM, first compound 1 µM
# [5] = second compound 0.0316 µM, first compound 3.16 µM
# [6] = second compound 0.0316 µM, first compound 10 µM
# [7] = second compound 0.1 µM, first compound 0.0316 µM
# [8] = second compound 0.1 µM, first compound 0.1 µM
# [9] = second compound 0.1 µM, first compound 0.316 µM
# [10] = second compound 0.1 µM, first compound 1 µM
# [11] = second compound 0.1 µM, first compound 3.16 µM
# [12] = second compound 0.1 µM, first compound 10 µM
# [13] = second compound 0.316 µM, first compound 0.0316 µM
# [14] = second compound 0.316 µM, first compound 0.1 µM
# [15] = second compound 0.316 µM, first compound 0.316 µM
# [16] = second compound 0.316 µM, first compound 1 µM
# [17] = second compound 0.316 µM, first compound 3.16 µM
# [18] = second compound 0.316 µM, first compound 10 µM
# [19] = second compound 1 µM, first compound 0.0316 µM
# [20] = second compound 1 µM, first compound 0.1 µM
# [21] = second compound 1 µM, first compound 0.316 µM
# [22] = second compound 1 µM, first compound 1 µM
# [23] = second compound 1 µM, first compound 3.16 µM
# [24] = second compound 1 µM, first compound 10 µM
# [25] = second compound 3.16 µM, first compound 0.0316 µM
# [26] = second compound 3.16 µM, first compound 0.1 µM
# [27] = second compound 3.16 µM, first compound 0.316 µM
# [28] = second compound 3.16 µM, first compound 1 µM
# [29] = second compound 3.16 µM, first compound 3.16 µM
# [30] = second compound 3.16 µM, first compound 10 µM
# [31] = second compound 10 µM, first compound 0.0316 µM
# [32] = second compound 10 µM, first compound 0.1 µM
# [33] = second compound 10 µM, first compound 0.316 µM
# [34] = second compound 10 µM, first compound 1 µM
# [35] = second compound 10 µM, first compound 3.16 µM
# [36] = second compound 10 µM, first compound 10 µM
# 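Also: spheroids exposed to the agents for 7 days.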
# 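For viability, T/C in this document: 100% = DMSO vehicle control viability.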
smiles,measurement,setting,value
C#Cc1c(F)ccc2cc(O)cc(-c3ncc4c(N5CC6CCC(C5)N6)nc(OCC56CCCN5CC(F)C6)nc4c3F)c12 (stereo not drawn) + Cc1[nH]c2ccc(F)cc2c1-c1nc2c3cccnc3c3ncccc3c2[nH]1,IC50,second compound 0.0316 µM,1.87 µM
same,IC50,second compound 0.1 µM,1.9 µM
same,IC50,second compound 0.316 µM,1.84 µM
same,IC50,second compound 1 µM,1.29 µM
same,IC50,second compound 3.16 µM,0.563 µM
same,IC50,second compound 10 µM,0.46 µM
same,"viability, T/C",[1],87.5%
same,"viability, T/C",[2],90.5%
same,"viability, T/C",[3],97%
same,"viability, T/C",[4],71.1%
same,"viability, T/C",[5],29.3%
same,"viability, T/C",[6],35.4%
same,"viability, T/C",[7],98.8%
same,"viability, T/C",[8],103%
same,"viability, T/C",[9],99.6%
same,"viability, T/C",[10],74.2%
same,"viability, T/C",[11],30.9%
same,"viability, T/C",[12],26.6%
same,"viability, T/C",[13],91.6%
same,"viability, T/C",[14],87.7%
same,"viability, T/C",[15],85.4%
same,"viability, T/C",[16],63.3%
same,"viability, T/C",[17],35.4%
same,"viability, T/C",[18],41%
same,"viability, T/C",[19],95.9%
same,"viability, T/C",[20],88.3%
same,"viability, T/C",[21],79.6%
same,"viability, T/C",[22],56.9%
same,"viability, T/C",[23],29.5%
same,"viability, T/C",[24],38.2%
same,"viability, T/C",[25],89.4%
same,"viability, T/C",[26],73.7%
same,"viability, T/C",[27],62%
same,"viability, T/C",[28],41%
same,"viability, T/C",[29],21.5%
same,"viability, T/C",[30],15.2%
same,"viability, T/C",[31],70.7%
same,"viability, T/C",[32],74.1%
same,"viability, T/C",[33],60.6%
same,"viability, T/C",[34],26.9%
same,"viability, T/C",[35],10.2%
same,"viability, T/C",[36],11.8%
CC(=O)O[C@H]1C(=O)[C@@]2(C)[C@H]([C@H](OC(=O)c3ccccc3)[C@]3(O)C[C@H](OC(=O)[C@H](O)[C@@H](NC(=O)c4ccccc4)c4ccccc4)C(C)=C1C3(C)C)[C@]1(OC(C)=O)CO[C@@H]1C[C@@H]2O + Cc1[nH]c2ccc(F)cc2c1-c1nc2c3cccnc3c3ncccc3c2[nH]1,IC50,second compound 0.0316 µM,2.8 µM
same,IC50,second compound 0.1 µM,4.12 µM
same,IC50,second compound 0.316 µM,4.51 µM
same,IC50,second compound 1 µM,3.63 µM
same,IC50,second compound 3.16 µM,2.19 µM
same,IC50,second compound 10 µM,1.97 µM
same,"viability, T/C",[1],97.5%
same,"viability, T/C",[2],93.3%
same,"viability, T/C",[3],80.5%
same,"viability, T/C",[4],92.1%
same,"viability, T/C",[5],45.2%
same,"viability, T/C",[6],0.33%
same,"viability, T/C",[7],102%
same,"viability, T/C",[8],106%
same,"viability, T/C",[9],86.6%
same,"viability, T/C",[10],90.9%
same,"viability, T/C",[11],65.6%
same,"viability, T/C",[12],0.32%
same,"viability, T/C",[13],113%
same,"viability, T/C",[14],91%
same,"viability, T/C",[15],85.7%
same,"viability, T/C",[16],87.7%
same,"viability, T/C",[17],75.5%
same,"viability, T/C",[18],0.3%
same,"viability, T/C",[19],94.1%
same,"viability, T/C",[20],93.3%
same,"viability, T/C",[21],96.2%
same,"viability, T/C",[22],89.8%
same,"viability, T/C",[23],56.8%
same,"viability, T/C",[24],0.2%
same,"viability, T/C",[25],83.7%
same,"viability, T/C",[26],93.3%
same,"viability, T/C",[27],96.7%
same,"viability, T/C",[28],84.8%
same,"viability, T/C",[29],33.4%
same,"viability, T/C",[30],0.38%
same,"viability, T/C",[31],78.5%
same,"viability, T/C",[32],90.1%
same,"viability, T/C",[33],77.2%
same,"viability, T/C",[34],78%
same,"viability, T/C",[35],30.7%
same,"viability, T/C",[36],0.47%
Nc1ccn(C2OC(CO)C(O)C2(F)F)c(=O)n1 (stereo not drawn) + Cc1[nH]c2ccc(F)cc2c1-c1nc2c3cccnc3c3ncccc3c2[nH]1,IC50,second compound 0.0316 µM,> 10 µM
same,IC50,second compound 0.1 µM,> 10 µM
same,IC50,second compound 0.316 µM,> 10 µM
same,IC50,second compound 1 µM,> 10 µM
same,IC50,second compound 3.16 µM,> 10 µM
same,IC50,second compound 10 µM,> 10 µM
same,"viability, T/C",[1],106%
same,"viability, T/C",[2],82.5%
same,"viability, T/C",[3],98.7%
same,"viability, T/C",[4],80.1%
same,"viability, T/C",[5],86.2%
same,"viability, T/C",[6],97.4%
same,"viability, T/C",[7],107%
same,"viability, T/C",[8],87.2%
same,"viability, T/C",[9],91.5%
same,"viability, T/C",[10],74.2%
same,"viability, T/C",[11],87.4%
same,"viability, T/C",[12],87.5%
same,"viability, T/C",[13],99.2%
same,"viability, T/C",[14],84.6%
same,"viability, T/C",[15],84.1%
same,"viability, T/C",[16],73.9%
same,"viability, T/C",[17],90.4%
same,"viability, T/C",[18],70.2%
same,"viability, T/C",[19],103%
same,"viability, T/C",[20],96.3%
same,"viability, T/C",[21],94.7%
same,"viability, T/C",[22],98.2%
same,"viability, T/C",[23],82.6%
same,"viability, T/C",[24],93.5%
same,"viability, T/C",[25],77.4%
same,"viability, T/C",[26],69%
same,"viability, T/C",[27],76%
same,"viability, T/C",[28],73.1%
same,"viability, T/C",[29],83%
same,"viability, T/C",[30],84.8%
same,"viability, T/C",[31],78.3%
same,"viability, T/C",[32],81.4%
same,"viability, T/C",[33],90.4%
same,"viability, T/C",[34],87.2%
same,"viability, T/C",[35],80.1%
same,"viability, T/C",[36],87.5%
O=c1[nH]cc(F)c(=O)[nH]1 + Cc1[nH]c2ccc(F)cc2c1-c1nc2c3cccnc3c3ncccc3c2[nH]1,IC50,second compound 0.0316 µM,> 10 µM
same,IC50,second compound 0.1 µM,> 10 µM
same,IC50,second compound 0.316 µM,> 10 µM
same,IC50,second compound 1 µM,> 10 µM
same,IC50,second compound 3.16 µM,> 10 µM
same,IC50,second compound 10 µM,> 10 µM
same,"viability, T/C",[1],95.6%
same,"viability, T/C",[2],88.1%
same,"viability, T/C",[3],109%
same,"viability, T/C",[4],91.7%
same,"viability, T/C",[5],80.3%
same,"viability, T/C",[6],89.5%
same,"viability, T/C",[7],87.4%
same,"viability, T/C",[8],87.7%
same,"viability, T/C",[9],84.6%
same,"viability, T/C",[10],83.5%
same,"viability, T/C",[11],98.3%
same,"viability, T/C",[12],101%
same,"viability, T/C",[13],94.2%
same,"viability, T/C",[14],76.8%
same,"viability, T/C",[15],78.5%
same,"viability, T/C",[16],107%
same,"viability, T/C",[17],114%
same,"viability, T/C",[18],109%
same,"viability, T/C",[19],79.2%
same,"viability, T/C",[20],94%
same,"viability, T/C",[21],85.4%
same,"viability, T/C",[22],87.2%
same,"viability, T/C",[23],108%
same,"viability, T/C",[24],86.7%
same,"viability, T/C",[25],87.2%
same,"viability, T/C",[26],83%
same,"viability, T/C",[27],94.1%
same,"viability, T/C",[28],95.8%
same,"viability, T/C",[29],94%
same,"viability, T/C",[30],76.1%
same,"viability, T/C",[31],70.2%
same,"viability, T/C",[32],76.2%
same,"viability, T/C",[33],88.6%
same,"viability, T/C",[34],57%
same,"viability, T/C",[35],61.4%
same,"viability, T/C",[36],61.4%
